Compound in one assay: O=[As]([O-])(O)O.[K+] [potassium arsenate]
The experiment in a line: thermal stability z-score vs DMSO; higher = more thermally stabilized by treatment. Particulars: HeLa; arsenate concentration 1 mM. The method, then:
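Cellular thermal proteome profiling in HeLa cells treated with 1 mM arsenate for 1 h (DMSO pretreatment), heated to ten temperatures (37-66.3 °C). Soluble protein was quantified by TMT mass spectrometry relative to DMSO controls; the thermal stability score was transformed to a z-score; mean of n = 3 experiments.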

Compound in a further assay: NC(=O)CCCCC1CCSS1 [lipoamide]
The description is as above. Particulars: HeLa, lipoamide concentration 100 µM. The method, then:
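Cellular thermal proteome profiling in HeLa cells. Cells were treated with 100 µM lipoamide for 1 h, with or without 1 mM arsenate for a further 1 h, then heated to ten temperatures (37-66.3 °C), and soluble protein was quantified by TMT mass spectrometry relative to 0.1% DMSO controls. The thermal stability score (sum of log2 fold changes minus the abundance score) was transformed to a z-score; mean of n = 3 experiments.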

The mark [1] stands for this setting: arsenate co-treatment: 1 mM arsenate 1 h.
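Further: each temperature applied for 3 min, abundance score taken as mean log2 fold change at the two lowest temperatures, z-score obtained by mean subtraction and division by SD.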

UniProt Q96DZ1, sequence (Q96DZ1 whole entry): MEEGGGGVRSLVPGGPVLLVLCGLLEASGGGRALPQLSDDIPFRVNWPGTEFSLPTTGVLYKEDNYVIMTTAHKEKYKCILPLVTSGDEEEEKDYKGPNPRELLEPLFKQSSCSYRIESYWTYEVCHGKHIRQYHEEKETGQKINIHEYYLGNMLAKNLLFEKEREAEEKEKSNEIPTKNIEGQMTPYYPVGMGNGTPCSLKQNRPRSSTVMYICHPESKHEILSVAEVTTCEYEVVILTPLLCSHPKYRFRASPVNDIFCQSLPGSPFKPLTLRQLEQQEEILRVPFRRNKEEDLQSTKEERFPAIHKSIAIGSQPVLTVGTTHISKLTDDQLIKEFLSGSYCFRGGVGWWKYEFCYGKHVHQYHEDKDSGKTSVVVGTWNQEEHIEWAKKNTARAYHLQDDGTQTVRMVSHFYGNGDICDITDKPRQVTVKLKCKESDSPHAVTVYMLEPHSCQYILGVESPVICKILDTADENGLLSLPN
UniProt Q00403, sequence (Q00403 whole entry): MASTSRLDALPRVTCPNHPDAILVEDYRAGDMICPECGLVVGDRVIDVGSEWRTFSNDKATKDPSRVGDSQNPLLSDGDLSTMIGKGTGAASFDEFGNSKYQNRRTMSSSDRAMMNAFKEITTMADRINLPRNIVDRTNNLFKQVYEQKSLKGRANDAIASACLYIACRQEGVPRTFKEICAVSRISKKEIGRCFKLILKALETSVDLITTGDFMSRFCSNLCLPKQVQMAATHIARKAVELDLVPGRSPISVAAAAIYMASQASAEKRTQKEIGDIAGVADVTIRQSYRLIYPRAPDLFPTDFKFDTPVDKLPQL
UniProt Q9Y255, sequence (Q9Y255 whole entry): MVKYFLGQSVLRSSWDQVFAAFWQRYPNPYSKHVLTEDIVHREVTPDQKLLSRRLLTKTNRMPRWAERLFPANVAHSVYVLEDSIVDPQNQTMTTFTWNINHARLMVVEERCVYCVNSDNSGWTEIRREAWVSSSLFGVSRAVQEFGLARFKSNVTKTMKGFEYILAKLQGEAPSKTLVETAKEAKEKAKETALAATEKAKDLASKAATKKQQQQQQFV
UniProt O60244, sequence (O60244 whole entry): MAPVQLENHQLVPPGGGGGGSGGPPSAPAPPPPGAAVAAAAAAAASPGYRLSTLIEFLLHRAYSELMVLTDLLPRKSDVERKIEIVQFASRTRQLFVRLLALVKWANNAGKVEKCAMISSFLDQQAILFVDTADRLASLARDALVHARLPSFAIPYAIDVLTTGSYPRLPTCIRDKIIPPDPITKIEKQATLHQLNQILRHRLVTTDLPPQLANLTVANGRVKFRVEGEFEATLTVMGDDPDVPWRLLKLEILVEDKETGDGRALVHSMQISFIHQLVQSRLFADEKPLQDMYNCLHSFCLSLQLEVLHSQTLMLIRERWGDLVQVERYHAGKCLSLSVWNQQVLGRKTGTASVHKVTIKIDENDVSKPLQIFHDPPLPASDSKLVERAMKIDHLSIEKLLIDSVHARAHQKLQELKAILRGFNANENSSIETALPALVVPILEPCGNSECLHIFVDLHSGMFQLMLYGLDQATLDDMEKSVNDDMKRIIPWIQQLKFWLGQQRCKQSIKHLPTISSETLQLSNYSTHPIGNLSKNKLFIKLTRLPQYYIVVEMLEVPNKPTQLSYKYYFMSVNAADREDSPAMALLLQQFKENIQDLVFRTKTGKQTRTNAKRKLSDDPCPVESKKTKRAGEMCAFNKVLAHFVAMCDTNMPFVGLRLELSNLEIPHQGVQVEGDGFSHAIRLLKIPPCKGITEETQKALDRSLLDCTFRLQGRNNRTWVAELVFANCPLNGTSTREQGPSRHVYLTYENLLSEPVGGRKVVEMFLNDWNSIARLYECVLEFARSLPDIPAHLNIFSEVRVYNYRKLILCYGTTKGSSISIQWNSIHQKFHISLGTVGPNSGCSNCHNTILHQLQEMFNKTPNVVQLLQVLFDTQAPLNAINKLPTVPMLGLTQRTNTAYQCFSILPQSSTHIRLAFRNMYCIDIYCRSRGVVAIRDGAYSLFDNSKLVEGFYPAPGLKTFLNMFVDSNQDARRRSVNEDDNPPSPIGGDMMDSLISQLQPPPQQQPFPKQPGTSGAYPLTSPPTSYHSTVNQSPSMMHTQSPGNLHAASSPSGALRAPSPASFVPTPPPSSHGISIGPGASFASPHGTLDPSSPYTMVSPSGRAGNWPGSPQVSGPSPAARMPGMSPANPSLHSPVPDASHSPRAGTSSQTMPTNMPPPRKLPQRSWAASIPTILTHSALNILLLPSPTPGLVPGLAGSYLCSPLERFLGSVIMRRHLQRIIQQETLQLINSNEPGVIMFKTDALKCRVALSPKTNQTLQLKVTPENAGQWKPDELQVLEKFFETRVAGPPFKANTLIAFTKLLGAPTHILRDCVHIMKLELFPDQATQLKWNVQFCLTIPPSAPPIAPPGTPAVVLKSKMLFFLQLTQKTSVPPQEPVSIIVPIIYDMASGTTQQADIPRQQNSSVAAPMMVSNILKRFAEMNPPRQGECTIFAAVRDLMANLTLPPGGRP
UniProt Q9Y6I4, sequence (Q9Y6I4 whole entry): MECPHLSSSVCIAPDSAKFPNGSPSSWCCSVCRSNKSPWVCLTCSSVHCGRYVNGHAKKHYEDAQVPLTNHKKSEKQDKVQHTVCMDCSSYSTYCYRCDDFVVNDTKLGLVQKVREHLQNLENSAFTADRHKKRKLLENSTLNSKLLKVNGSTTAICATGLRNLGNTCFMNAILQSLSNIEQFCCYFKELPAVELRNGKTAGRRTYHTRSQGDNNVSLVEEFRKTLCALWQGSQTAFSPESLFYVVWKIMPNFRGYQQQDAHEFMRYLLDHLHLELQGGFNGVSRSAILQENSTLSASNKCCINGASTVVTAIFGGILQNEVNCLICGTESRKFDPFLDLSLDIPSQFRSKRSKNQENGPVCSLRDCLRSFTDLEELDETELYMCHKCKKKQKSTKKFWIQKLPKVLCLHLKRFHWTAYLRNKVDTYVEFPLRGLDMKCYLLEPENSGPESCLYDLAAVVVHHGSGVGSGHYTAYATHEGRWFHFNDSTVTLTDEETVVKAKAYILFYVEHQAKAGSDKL
UniProt O00264, sequence (O00264 whole entry): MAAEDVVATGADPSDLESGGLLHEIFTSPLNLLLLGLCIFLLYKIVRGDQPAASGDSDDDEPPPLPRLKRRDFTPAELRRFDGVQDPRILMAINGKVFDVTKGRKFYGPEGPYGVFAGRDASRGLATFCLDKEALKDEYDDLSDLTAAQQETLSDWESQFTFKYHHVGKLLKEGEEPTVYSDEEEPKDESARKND
UniProt Q86UU1, sequence (Q86UU1 whole entry): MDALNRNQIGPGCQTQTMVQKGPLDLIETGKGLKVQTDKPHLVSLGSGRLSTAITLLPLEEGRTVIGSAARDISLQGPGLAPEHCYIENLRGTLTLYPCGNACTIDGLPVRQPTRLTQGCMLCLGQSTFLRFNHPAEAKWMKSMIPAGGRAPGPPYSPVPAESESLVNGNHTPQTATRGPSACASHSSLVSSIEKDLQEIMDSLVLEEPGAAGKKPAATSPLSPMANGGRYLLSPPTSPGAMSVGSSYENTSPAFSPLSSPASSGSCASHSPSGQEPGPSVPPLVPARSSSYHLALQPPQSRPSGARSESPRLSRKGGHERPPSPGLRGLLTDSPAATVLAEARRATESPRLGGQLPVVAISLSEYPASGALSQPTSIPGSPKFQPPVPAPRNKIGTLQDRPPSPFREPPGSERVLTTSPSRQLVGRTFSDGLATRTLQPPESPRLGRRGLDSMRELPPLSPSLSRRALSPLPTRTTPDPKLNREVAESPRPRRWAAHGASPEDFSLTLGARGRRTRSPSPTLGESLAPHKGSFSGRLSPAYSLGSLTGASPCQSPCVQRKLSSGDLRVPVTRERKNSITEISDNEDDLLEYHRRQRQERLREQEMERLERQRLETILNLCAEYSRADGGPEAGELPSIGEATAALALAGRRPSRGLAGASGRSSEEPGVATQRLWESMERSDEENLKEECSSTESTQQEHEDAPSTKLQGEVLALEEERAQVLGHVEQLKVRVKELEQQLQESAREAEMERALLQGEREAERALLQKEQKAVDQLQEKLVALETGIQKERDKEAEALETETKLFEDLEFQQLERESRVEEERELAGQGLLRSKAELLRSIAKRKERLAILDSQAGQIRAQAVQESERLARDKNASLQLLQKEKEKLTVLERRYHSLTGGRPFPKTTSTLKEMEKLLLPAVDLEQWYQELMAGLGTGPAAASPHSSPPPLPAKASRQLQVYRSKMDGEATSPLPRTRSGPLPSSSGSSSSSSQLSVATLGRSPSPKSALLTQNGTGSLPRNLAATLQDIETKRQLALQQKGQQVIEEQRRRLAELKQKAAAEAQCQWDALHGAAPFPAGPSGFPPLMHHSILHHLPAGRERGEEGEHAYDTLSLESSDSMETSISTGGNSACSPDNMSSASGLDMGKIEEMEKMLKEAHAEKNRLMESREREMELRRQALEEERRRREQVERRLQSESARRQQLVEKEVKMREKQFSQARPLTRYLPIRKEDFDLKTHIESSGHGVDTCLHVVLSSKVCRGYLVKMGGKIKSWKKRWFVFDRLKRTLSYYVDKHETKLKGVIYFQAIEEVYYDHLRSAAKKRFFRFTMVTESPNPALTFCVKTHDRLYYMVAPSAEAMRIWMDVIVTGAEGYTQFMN
UniProt Q9ULC4, sequence (Q9ULC4 whole entry): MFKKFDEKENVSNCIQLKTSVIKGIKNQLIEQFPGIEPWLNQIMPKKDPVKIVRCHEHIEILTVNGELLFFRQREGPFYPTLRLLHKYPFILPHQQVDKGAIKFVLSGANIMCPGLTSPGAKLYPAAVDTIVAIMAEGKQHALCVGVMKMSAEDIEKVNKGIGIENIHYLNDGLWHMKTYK
UniProt Q86SZ2, sequence (Q86SZ2 whole entry): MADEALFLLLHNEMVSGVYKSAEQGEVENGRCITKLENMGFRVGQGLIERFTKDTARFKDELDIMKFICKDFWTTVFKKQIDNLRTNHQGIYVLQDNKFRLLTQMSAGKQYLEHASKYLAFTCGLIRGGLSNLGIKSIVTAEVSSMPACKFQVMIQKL

For ERLEC1 (UniProt Q96DZ1), the results for the thermal stability z-score in the assay with potassium arsenate, in the assay with lipoamide (setting [1]) and with lipoamide (arsenate co-treatment: none) were 0.593, -2.84 and -2.07, respectively.
Taken in the same sequence, the figures for PRELID1 (UniProt Q9Y255) were -0.054, 0.0933 and -0.2.
The like results for ATP6V1D (UniProt Q9Y5K8) were, in that order, -0.425, 0.546 and 0.0685.
Taken in the same sequence, the figures for MED14 (UniProt O60244) were -0.2, -0.0798 and -0.176.
As for MRPL51 (UniProt Q4U2R6), the thermal stability z-score with potassium arsenate is -0.0101; in the assay with lipoamide (setting [1]), -0.114; with lipoamide (arsenate co-treatment: none) it was 0.334.
As for FBXO2 (UniProt Q9UK22), the thermal stability z-score with potassium arsenate is 0.0529; in the assay with lipoamide (setting [1]), -0.743; with lipoamide (arsenate co-treatment: none), 0.137.
The like results for TRAPPC6B (UniProt Q86SZ2) were, in that order, -0.511, -0.428 and -1.19.
Taken in the same sequence, the figures for PPP2R5D (UniProt Q14738) were 0.228, -0.378 and -0.239.
The like results for NOC4L (UniProt Q9BVI4) were, in that order, 0.214, 0.134 and 0.00403.
For the target TRIM44 (UniProt Q96DX7), the thermal stability z-score in the assay with potassium arsenate was 0.419; in the assay with lipoamide (setting [1]), 0.0927; with lipoamide (arsenate co-treatment: none), -0.409.
Take PGRMC1 (UniProt O00264): the figures for the thermal stability z-score with potassium arsenate, with lipoamide (setting [1]) and with lipoamide (arsenate co-treatment: none) were 0.982, 0.421 and 0.452, respectively.
Taken in the same sequence, the figures for SYMPK (UniProt Q92797) were -0.75, 0.324 and 0.338.
Taken in the same sequence, the figures for DCAF11 (UniProt Q8TEB1) were -0.996, 0.101 and 0.343.
Taken in the same sequence, the figures for HPD (UniProt P32754) were 1.61, 0.25 and 0.117.
With MTMR1 (UniProt Q13613), the thermal stability z-score with potassium arsenate is -1.27; with lipoamide (setting [1]), -0.545; in the assay with lipoamide (arsenate co-treatment: none), -0.803.
Taken in the same sequence, the figures for CAD (UniProt P27708) were -0.201, -0.284 and -1.08.
The like results for PPID (UniProt Q08752) were, in that order, 0.368, 0.244 and -0.234.
Taken in the same sequence, the figures for GTF2B (UniProt Q00403) were -1.93, -0.0775 and 0.338.
For the target NDUFA12 (UniProt Q9UI09), the values for the thermal stability z-score with potassium arsenate, with lipoamide (setting [1]) and in the assay with lipoamide (arsenate co-treatment: none) were 0.611, -0.0618 and 0.06, respectively.
Taken in the same sequence, the figures for MCTS1 (UniProt Q9ULC4) were -1.02, -0.523 and -0.0571.
Taken in the same sequence, the figures for THOC1 (UniProt Q96FV9) were -0.258, 0.298 and -0.0559.
Taken in the same sequence, the figures for USP3 (UniProt Q9Y6I4) were -2.27, 0.0204 and 0.0221.
On to SLAIN2 (UniProt Q9P270), for which the thermal stability z-score with potassium arsenate is -0.0239; with lipoamide (setting [1]), 0.251; in the assay with lipoamide (arsenate co-treatment: none) it was 0.508.
Taken in the same sequence, the figures for BRD3 (UniProt Q15059) were -0.279, 0.0121 and -0.107.
For C11ORF54 (UniProt Q9H0W9), the thermal stability z-score is 0.829 with potassium arsenate, 2.36 with lipoamide (setting [1]) and 3.02 in the assay with lipoamide (arsenate co-treatment: none).
Taken in the same sequence, the figures for PHLDB1 (UniProt Q86UU1) were 0.2, -0.559 and 0.362.
Taken in the same sequence, the figures for EIF3K (UniProt Q9UBQ5) were 0.00475, -0.353 and 0.0198.
The like results for SMG5 (UniProt Q9UPR3) were, in that order, -0.104, -0.0554 and 0.0814.

The record behind these values is the supplement of paper PMC12463676, “Small-molecule dissolution of stress granules by redox modulation benefits ALS models” (Nature Chemical Biology, 2025).
